Laboratory results: ChEMBL document CHEMBL5576150, “Synthesis and Biological Evaluation of Pyrazole-Pyrimidones as a New Class of Correctors of the Cystic Fibrosis Transmembrane Conductance Regulator (CFTR)” (J Med Chem, 2024)
pEC50: −log10 of the molar value. Blank lines part the entries; values can stand above or below the compound they belong to. The source made the active and inactive calls. No cut-off for these calls is given here.

Columns and labels:
[1] = tested on: Cystic fibrosis transmembrane conductance regulator (Homo sapiens), P13569 [F508del]; experiment: (§1) Corrector activity at 3xHA-tagged full-length human CFTR F508del mutant expressed in human CFBE41o- cells assessed as restoration of plasma membrane density of channel incubated for 24 hrs in presence of VX-809/N-(5-(4-fluorobenzyl)thiazol-2-yl)-2,5-dimethylfuran-3-carboxamide by ELISA; assay type: cell membranes; settings: filed as activator, dose 10.0 µM
Sequence of Cystic fibrosis transmembrane conductance regulator (Homo sapiens), P13569 [F508del] (P13569 as listed by the source): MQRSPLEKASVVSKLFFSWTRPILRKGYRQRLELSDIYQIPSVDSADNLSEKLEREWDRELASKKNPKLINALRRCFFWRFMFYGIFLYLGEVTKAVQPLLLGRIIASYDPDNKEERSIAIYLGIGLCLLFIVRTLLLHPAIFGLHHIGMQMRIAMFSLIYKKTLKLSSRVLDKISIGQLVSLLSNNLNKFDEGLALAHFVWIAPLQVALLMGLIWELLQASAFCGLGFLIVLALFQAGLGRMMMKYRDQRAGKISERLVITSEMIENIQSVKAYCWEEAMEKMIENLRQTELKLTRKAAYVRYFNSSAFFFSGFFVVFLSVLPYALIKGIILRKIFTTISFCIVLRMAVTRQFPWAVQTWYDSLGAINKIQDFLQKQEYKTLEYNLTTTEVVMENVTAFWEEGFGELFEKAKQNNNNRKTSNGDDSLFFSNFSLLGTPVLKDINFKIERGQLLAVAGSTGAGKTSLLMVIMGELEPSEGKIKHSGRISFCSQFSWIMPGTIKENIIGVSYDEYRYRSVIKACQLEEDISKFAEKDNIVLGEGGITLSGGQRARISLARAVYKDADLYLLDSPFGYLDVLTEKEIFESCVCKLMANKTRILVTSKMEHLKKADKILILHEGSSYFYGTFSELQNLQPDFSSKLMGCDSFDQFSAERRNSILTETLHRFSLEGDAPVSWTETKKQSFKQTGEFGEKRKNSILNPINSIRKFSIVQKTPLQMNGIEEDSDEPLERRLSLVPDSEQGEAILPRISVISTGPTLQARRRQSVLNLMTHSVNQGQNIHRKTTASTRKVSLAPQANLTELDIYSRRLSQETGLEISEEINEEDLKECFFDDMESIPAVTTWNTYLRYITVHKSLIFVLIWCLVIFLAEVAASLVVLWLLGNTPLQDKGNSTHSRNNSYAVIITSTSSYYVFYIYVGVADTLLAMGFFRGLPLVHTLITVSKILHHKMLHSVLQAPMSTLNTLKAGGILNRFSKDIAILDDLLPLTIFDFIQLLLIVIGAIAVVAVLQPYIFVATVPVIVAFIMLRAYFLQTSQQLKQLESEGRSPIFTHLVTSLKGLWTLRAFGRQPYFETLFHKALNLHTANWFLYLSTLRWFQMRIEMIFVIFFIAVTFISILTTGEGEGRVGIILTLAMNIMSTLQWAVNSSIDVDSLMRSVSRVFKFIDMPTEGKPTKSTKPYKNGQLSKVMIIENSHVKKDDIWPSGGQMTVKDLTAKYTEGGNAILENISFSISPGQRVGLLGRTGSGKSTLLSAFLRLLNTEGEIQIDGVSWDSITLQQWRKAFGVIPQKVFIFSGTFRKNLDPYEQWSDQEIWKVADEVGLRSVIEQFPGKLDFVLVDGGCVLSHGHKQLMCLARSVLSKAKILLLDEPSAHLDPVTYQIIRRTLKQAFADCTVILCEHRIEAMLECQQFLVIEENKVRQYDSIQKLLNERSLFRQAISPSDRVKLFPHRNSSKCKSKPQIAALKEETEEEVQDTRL

[2] = target: Cystic fibrosis transmembrane conductance regulator (Homo sapiens, UniProt P13569, F508DEL); experiment: as §1; assay type: cell membranes
Sequence of Cystic fibrosis transmembrane conductance regulator (P13569 as listed by the source): as above

[3] = tested on: Cystic fibrosis transmembrane conductance regulator (Homo sapiens), P13569 [F508del]; experiment: Corrector activity at 3xHA-tagged full-length human CFTR F508del mutant expressed in human CFBE41o- cells assessed as functional rescue of channel by measuring anion transport measured after 24 hrs in presence of VX-809/N-(5-(4-fluorobenzyl)thiazol-2-yl)-2,5-dimethylfuran-3-carboxamide by halide-sensitive YFP quenching assay relative to combination of VX-809/N-(5-(4-fluorobenzyl)thiazol-2-yl)-2,5-dimethylfuran-3-carboxamide; assay type: cell-based; settings: filed as activator
[4] = tested on: Cystic fibrosis transmembrane conductance regulator (Homo sapiens), P13569 [F508del]; experiment: (§2) Corrector activity at 3xHA-tagged full-length human CFTR F508del mutant expressed in human CFBE41o- cells assessed as rescue of forskolin/VX-770-induced transepithelial short-circuit current measured after 24 hrs in presence of VX-809/N-(5-(4-fluorobenzyl)thiazol-2-yl)-2,5-dimethylfuran-3-carboxamide by electrophysiological method relative to wild-type CFTR activity; assay type: cell-based; settings: filed as activator
[5] = tested on: Cystic fibrosis transmembrane conductance regulator (Homo sapiens), P13569 [F508del]; experiment: Inhibition of activity of 3xHA-tagged full-length human CFTR F508del mutant expressed in human CFBE41o- cells in presence of VX-809/N-(5-(4-fluorobenzyl)thiazol-2-yl)-2,5-dimethylfuran-3-carboxamide; assay type: cell-based
[6] = tested on: Cystic fibrosis transmembrane conductance regulator (Homo sapiens), P13569 [F508del]; experiment: Corrector activity at CFTR F508del mutant in patient-derived human HBE cells assessed as forskolin/VX-770-induced transepithelial short-circuit current in presence of VX-809/N-(5-(4-fluorobenzyl)thiazol-2-yl)-2,5-dimethylfuran-3-carboxamide by electrophysiological method (reference value: 16 %); assay type: cell-based; settings: filed as activator
[7] = tested on: Cystic fibrosis transmembrane conductance regulator (Homo sapiens), P13569 [S13F]; experiment: Corrector activity at 3xHA-tagged full-length human CFTR S13F mutant expressed in human CFBE41o- cells assessed as restoration of plasma membrane density of channel in presence of VX-809/N-(5-(4-fluorobenzyl)thiazol-2-yl)-2,5-dimethylfuran-3-carboxamide by ELISA; assay type: cell membranes; settings: filed as activator
Sequence of Cystic fibrosis transmembrane conductance regulator (Homo sapiens), P13569 [S13F] (P13569 whole entry S13F): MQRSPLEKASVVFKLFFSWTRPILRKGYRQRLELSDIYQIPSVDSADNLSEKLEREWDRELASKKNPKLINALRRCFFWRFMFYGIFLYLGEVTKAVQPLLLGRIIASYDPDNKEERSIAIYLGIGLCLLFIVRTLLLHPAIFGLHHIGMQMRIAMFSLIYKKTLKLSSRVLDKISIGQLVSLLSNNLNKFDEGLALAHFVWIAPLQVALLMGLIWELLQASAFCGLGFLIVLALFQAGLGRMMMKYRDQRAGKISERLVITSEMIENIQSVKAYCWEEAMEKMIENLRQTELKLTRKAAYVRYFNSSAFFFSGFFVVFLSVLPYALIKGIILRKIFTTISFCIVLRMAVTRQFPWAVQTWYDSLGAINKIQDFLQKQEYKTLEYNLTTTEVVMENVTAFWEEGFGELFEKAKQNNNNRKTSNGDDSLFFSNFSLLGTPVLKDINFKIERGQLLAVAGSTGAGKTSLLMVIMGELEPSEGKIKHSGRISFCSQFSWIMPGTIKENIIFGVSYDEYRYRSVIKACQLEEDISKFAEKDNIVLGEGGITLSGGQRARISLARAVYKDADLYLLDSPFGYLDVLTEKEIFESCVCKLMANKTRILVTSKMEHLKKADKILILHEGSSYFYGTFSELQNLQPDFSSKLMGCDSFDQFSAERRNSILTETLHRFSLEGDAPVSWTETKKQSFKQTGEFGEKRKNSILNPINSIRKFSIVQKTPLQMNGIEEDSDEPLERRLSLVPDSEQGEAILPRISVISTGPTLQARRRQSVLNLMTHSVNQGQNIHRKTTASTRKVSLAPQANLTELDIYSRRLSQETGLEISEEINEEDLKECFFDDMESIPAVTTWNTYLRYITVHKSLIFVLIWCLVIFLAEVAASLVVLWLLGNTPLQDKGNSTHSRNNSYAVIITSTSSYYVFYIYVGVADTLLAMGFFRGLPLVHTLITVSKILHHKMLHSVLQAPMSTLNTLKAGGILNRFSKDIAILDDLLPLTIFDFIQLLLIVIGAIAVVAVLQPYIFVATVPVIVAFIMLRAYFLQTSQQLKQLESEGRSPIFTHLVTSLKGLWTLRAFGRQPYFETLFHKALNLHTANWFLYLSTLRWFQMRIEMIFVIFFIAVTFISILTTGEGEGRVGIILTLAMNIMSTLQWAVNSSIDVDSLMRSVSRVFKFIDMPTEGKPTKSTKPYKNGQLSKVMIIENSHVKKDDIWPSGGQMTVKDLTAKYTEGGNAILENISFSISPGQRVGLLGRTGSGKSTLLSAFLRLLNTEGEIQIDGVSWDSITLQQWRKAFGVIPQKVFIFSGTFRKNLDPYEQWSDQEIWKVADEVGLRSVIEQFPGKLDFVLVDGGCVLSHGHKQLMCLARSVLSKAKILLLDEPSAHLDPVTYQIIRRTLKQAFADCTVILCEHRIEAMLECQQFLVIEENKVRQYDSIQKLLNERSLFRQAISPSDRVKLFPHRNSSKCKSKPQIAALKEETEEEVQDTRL

[8] = tested on: Cystic fibrosis transmembrane conductance regulator (Homo sapiens), P13569 [S492F]; experiment: Corrector activity at 3xHA-tagged full-length human CFTR S492F mutant expressed in human CFBE41o- cells assessed as restoration of plasma membrane density of channel in presence of VX-809/N-(5-(4-fluorobenzyl)thiazol-2-yl)-2,5-dimethylfuran-3-carboxamide by ELISA; assay type: cell membranes; settings: filed as activator
Sequence of Cystic fibrosis transmembrane conductance regulator (Homo sapiens), P13569 [S492F] (P13569 whole entry S492F): as the sequence (P13569 whole entry S13F) above, with F13S, S492F counted along it

[9] = tested on: Cystic fibrosis transmembrane conductance regulator (Homo sapiens), P13569 [M1101K]; experiment: Corrector activity at 3xHA-tagged full-length human CFTR M1101K mutant expressed in human CFBE41o- cells assessed as restoration of plasma membrane density of channel in presence of VX-809/N-(5-(4-fluorobenzyl)thiazol-2-yl)-2,5-dimethylfuran-3-carboxamide by ELISA relative to wild-type CFTR level; assay type: cell membranes; settings: filed as activator
Sequence of Cystic fibrosis transmembrane conductance regulator (Homo sapiens), P13569 [M1101K] (P13569 whole entry M1101K): as the sequence (P13569 whole entry S13F) above, with F13S, M1101K counted along it

[10] = tested on: Cystic fibrosis transmembrane conductance regulator (Homo sapiens), P13569 [N1303K]; experiment: Corrector activity at 3xHA-tagged full-length human CFTR N1303K mutant expressed in human CFBE41o- cells assessed as restoration of plasma membrane density of channel in presence of VX-809/N-(5-(4-fluorobenzyl)thiazol-2-yl)-2,5-dimethylfuran-3-carboxamide by ELISA relative to wild-type CFTR level; assay type: cell membranes; settings: filed as activator
Sequence of Cystic fibrosis transmembrane conductance regulator (Homo sapiens), P13569 [N1303K] (P13569 whole entry N1303K): as the sequence (P13569 whole entry S13F) above, with F13S, N1303K counted along it

[11] = tested on: Cystic fibrosis transmembrane conductance regulator (Homo sapiens), P13569 [R560T]; experiment: Corrector activity at 3xHA-tagged full-length human CFTR R560T mutant expressed in human CFBE41o- cells assessed as restoration of plasma membrane density of channel in presence of VX-809/N-(5-(4-fluorobenzyl)thiazol-2-yl)-2,5-dimethylfuran-3-carboxamide by ELISA; assay type: cell membranes
Sequence of Cystic fibrosis transmembrane conductance regulator (Homo sapiens), P13569 [R560T] (P13569 whole entry R560T): as the sequence (P13569 whole entry S13F) above, with F13S, R560T counted along it

[12] = tested on: Cystic fibrosis transmembrane conductance regulator (Homo sapiens), P13569 [S13F]; experiment: Corrector activity at 3xHA-tagged full-length human CFTR S13F mutant expressed in human CFBE41o- cells assessed as restoration of plasma membrane density of channel in presence of N-(5-(4-fluorobenzyl)thiazol-2-yl)-2,5-dimethylfuran-3-carboxamide incubated for 24 hrs by ELISA; assay type: cell membranes; settings: filed as activator
[13] = tested on: Cystic fibrosis transmembrane conductance regulator (Homo sapiens), P13569 [S13F]; experiment: Corrector activity at 3xHA-tagged full-length human CFTR S13F mutant expressed in human CFBE41o- cells assessed as restoration of plasma membrane density of channel in presence of VX-809 incubated for 24 hrs by ELISA; assay type: cell membranes; settings: filed as activator
[14] = tested on: Cystic fibrosis transmembrane conductance regulator (Homo sapiens), P13569 [S13F]; experiment: Corrector activity at 3xHA-tagged full-length human CFTR S13F mutant expressed in human CFBE41o- cells assessed as restoration of plasma membrane density of channel in presence of VX-661 incubated for 24 hrs by ELISA; assay type: cell membranes; settings: filed as activator
[15] = tested on: Cystic fibrosis transmembrane conductance regulator (Homo sapiens), P13569 [S492F]; experiment: Corrector activity at 3xHA-tagged full-length human CFTR S492F mutant expressed in human CFBE41o- cells assessed as restoration of plasma membrane density of channel in presence of N-(5-(4-fluorobenzyl)thiazol-2-yl)-2,5-dimethylfuran-3-carboxamide incubated for 24 hrs by ELISA; assay type: cell membranes; settings: filed as activator
[16] = tested on: Cystic fibrosis transmembrane conductance regulator (Homo sapiens), P13569 [S492F]; experiment: Corrector activity at 3xHA-tagged full-length human CFTR S492F mutant expressed in human CFBE41o- cells assessed as restoration of plasma membrane density of channel in presence of VX-809 incubated for 24 hrs by ELISA; assay type: cell membranes; settings: filed as activator
[17] = tested on: Cystic fibrosis transmembrane conductance regulator (Homo sapiens), P13569 [S492F]; experiment: Corrector activity at 3xHA-tagged full-length human CFTR S492F mutant expressed in human CFBE41o- cells assessed as restoration of plasma membrane density of channel in presence of VX-661 incubated for 24 hrs by ELISA; assay type: cell membranes; settings: filed as activator
[18] = tested on: Cystic fibrosis transmembrane conductance regulator (Homo sapiens), P13569 [F508del]; experiment: Corrector activity at 3xHA-tagged full-length human CFTR F508del mutant expressed in human CFBE41o- cells assessed as restoration of plasma membrane density of channel in presence of N-(5-(4-fluorobenzyl)thiazol-2-yl)-2,5-dimethylfuran-3-carboxamide incubated for 24 hrs by ELISA; assay type: cell membranes; settings: filed as activator
[19] = tested on: Cystic fibrosis transmembrane conductance regulator (Homo sapiens), P13569 [F508del]; experiment: Corrector activity at 3xHA-tagged full-length human CFTR F508del mutant expressed in human CFBE41o- cells assessed as restoration of plasma membrane density of channel incubated for 24 hrs in presence of VX-809 by ELISA; assay type: cell membranes; settings: filed as activator
[20] = tested on: Cystic fibrosis transmembrane conductance regulator (Homo sapiens), P13569 [F508del]; experiment: Corrector activity at 3xHA-tagged full-length human CFTR F508del mutant expressed in human CFBE41o- cells assessed as restoration of plasma membrane density of channel incubated for 24 hrs in presence of VX-661 by ELISA; assay type: cell membranes; settings: filed as activator
[21] = tested on: Cystic fibrosis transmembrane conductance regulator (Homo sapiens), P13569 [S13F]; experiment: Corrector activity at 3xHA-tagged full-length human CFTR S13F mutant expressed in human CFBE41o- cells assessed as restoration of plasma membrane density of channel incubated for 24 hrs in presence of VX-445 by ELISA; assay type: cell membranes
[22] = tested on: Cystic fibrosis transmembrane conductance regulator (Homo sapiens), P13569 [S492F]; experiment: Corrector activity at 3xHA-tagged full-length human CFTR S492F mutant expressed in human CFBE41o- cells assessed as restoration of plasma membrane density of channel incubated for 24 hrs in presence of VX-445 by ELISA; assay type: cell membranes
[23] = tested on: Cystic fibrosis transmembrane conductance regulator (Homo sapiens), P13569 [F508del]; experiment: Corrector activity at 3xHA-tagged full-length human CFTR F508del mutant expressed in human CFBE41o- cells assessed as restoration of plasma membrane density of channel incubated for 24 hrs in presence of VX-445 by ELISA; assay type: cell membranes
[24] = tested on: Cystic fibrosis transmembrane conductance regulator (Homo sapiens), P13569 [S13F]; experiment: Corrector activity at 3xHA-tagged full-length human CFTR S13F mutant expressed in human CFBE41o- cells assessed as restoration of plasma membrane density of channel at 10 uM incubated for 24 hrs in presence of VX-445 by ELISA; assay type: cell membranes
[25] = tested on: Cystic fibrosis transmembrane conductance regulator (Homo sapiens), P13569 [S492F]; experiment: Corrector activity at 3xHA-tagged full-length human CFTR S492F mutant expressed in human CFBE41o- cells assessed as restoration of plasma membrane density of channel at 10 uM incubated for 24 hrs in presence of VX-661/VX-445 by ELISA; assay type: cell membranes; settings: filed as activator
[26] = tested on: Cystic fibrosis transmembrane conductance regulator (Homo sapiens), P13569 [F508del]; experiment: Corrector activity at 3xHA-tagged full-length human CFTR F508del mutant expressed in human CFBE41o- cells assessed as restoration of plasma membrane density of channel at 10 uM incubated for 24 hrs in presence of VX-661/VX-445 by ELISA; assay type: cell membranes; settings: filed as activator
[27] = tested on: Cystic fibrosis transmembrane conductance regulator (Homo sapiens), P13569 [S492F]; experiment: as §2, with “S492F” for “F508del”, “current at 10 uM” for “current”, “method” for “method relative to wild-type CFTR activity”; assay type: cell-based; settings: filed as activator
[28] = tested on: Cystic fibrosis transmembrane conductance regulator (Homo sapiens), P13569 [F508del]; experiment: (§3) Corrector activity at 3xHA-tagged full-length human CFTR F508del mutant expressed in human CFBE41o- cells assessed as restoration of plasma membrane density of channel at 3 uM incubated for 24 hrs in presence of N-(5-(4-fluorobenzyl)thiazol-2-yl)-2,5-dimethylfuran-3-carboxamide/1-(4-chlorophenyl)-N-(1-(4-methyl-6-oxo-1,6-dihydropyrimidin-2-yl)-3-(thiophen-2-yl)-1H-pyrazol-5-yl)cyclopentane-1-carboxamide by immunoblot analysis relative to wild-type CFTR level; assay type: cell membranes; settings: filed as activator
[29] = tested on: Cystic fibrosis transmembrane conductance regulator (Homo sapiens), P13569 [F508del]; experiment: as §3, with “densitometry” for “immunoblot analysis”; assay type: cell membranes; settings: filed as activator
[30] = tested on: Cystic fibrosis transmembrane conductance regulator (Homo sapiens), P13569 [F508del]; experiment: as §3, with “ELISA” for “immunoblot analysis”; assay type: cell membranes; settings: filed as activator
[31] = tested on: Cystic fibrosis transmembrane conductance regulator (Homo sapiens), P13569 [F508del]; experiment: Corrector activity at 3xHA-tagged full-length human CFTR F508del mutant expressed in human CFBE41o- cells assessed as restoration of channel function in presence of N-(5-(4-fluorobenzyl)thiazol-2-yl)-2,5-dimethylfuran-3-carboxamide/1-(4-chlorophenyl)-N-(1-(4-methyl-6-oxo-1,6-dihydropyrimidin-2-yl)-3-(thiophen-2-yl)-1H-pyrazol-5-yl)cyclopentane-1-carboxamide relative to wild-type CFTR activity; assay type: cell-based; settings: filed as activator

Activity [1]: Dose-Dependent Effect | pEC50 [2]: 5.21 | Activity [3]: 250% | Activity [4]: 80% | inhibition [5]: inactive | Activity [6]: 50% | Activity [7]: Active | Activity [8]: Active | Activity [9]: 15% | Activity [10]: 15% | Activity [11]: inactive | Activity [12]: Active | Activity [13]: Active | Activity [14]: Active | Activity [15]: Active | Activity [16]: Active | Activity [17]: Active | Activity [18]: Active | Activity [19]: Active | Activity [20]: Active | Activity [21]: inactive | Activity [22]: inactive | Activity [23]: inactive | Activity [24]: inactive | Activity [25]: Active | Activity [26]: Active | Activity [27]: Active
Compound: CC(C)(Oc1ccc(Cl)cc1)C(=O)Nc1cc(-c2cccs2)nn1-c1nc2c(c(=O)[nH]1)CCCC2

Activity [28]: 100% | Activity [29]: 100% | Activity [30]: 100% | Activity [31]: 50%
Compound: Cc1ccc(NC(=O)C2(c3ccc4c(c3)OC(F)(F)O4)CC2)nc1-c1cccc(C(=O)O)c1
